Tests used:
GP IIb IIIa [1] = target: T1, GP IIb IIIa (Homo sapiens, UniProt P05106+P08514); assay: Fibrinogen-GP IIb IIIa Receptor ELISA Binding Assay (Fg/IIbIIIa)
T1 construct: from tissue; host or cells: outdated human platelets
In short: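 Purified human platelet GP IIb IIIa binding to immobilised purified fibrinogen was run with compound at room temperature for 1 h. IC50 values were determined.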

[2] = target: T2, Human Vitronectin receptor (av b3) (Homo sapiens, UniProt P05106+P06756); assay: Human Vitronectin-Vitronectin Receptor (av b3) ELISA Assay (Vn/VnR); assay type: binding; settings: Example 30, G # table
T2 construct: is purified from human placenta; from tissue; host or cells: human placenta
Description: Human vitronectin (Vn) is isolated from human plasma and purified by affinity chromatography by the method of Yatohgo et. al., (Cell Structure and Function 13: 281-292 [1988]).
Human vitronection receptor (VnR) is purified from human placenta by the method of Pytela et al., (Methods Enzymol., 144: 475 [1987]). Alternatively the av b3 receptor can be purified from some cell lines (e.g., human embryonic kidney 293 cells) transfected with DNA sequences for both the av and b3 subunits. The subunits are purified by employing octylglucoside extraction followed by Con-A, Heparin-Sepharose, and S-300 Chromatography.
This mouse Mab is specific for the b3 subunit of the vitronectin receptor.
Rabbit Fab 2 anti-mouse Fc fragment horse radish peroxidase conjugate (anti-MuFc HRP) is obtained from PelFreeze (cat. no. 715305-1).
Maxisorp microtiter plates are coated with 2 mg/ml human vitronectin dissolved in PBS (50 ml/well) and stored overnight at 4° C. The plates are washed two times with PBS-0.05% Tween-20 (wash buffer) and blocked by incubating with about 150 ml/well of assay buffer (1%, BSA [RIA grade or better] in 50 mM Tris-HCl, 100 mM NaCl, 1 mM MgCl2, CaCl2, MnCl2 pH 7.4) for 60 minutes. […] The blocked plates are emptied and 25 ml/well of inhibitor or standard solution is added to each well. Twenty-five ml of a 30 mg/ml solution of purified av b3 in assay buffer is pipetted into the coated plate. The final concentration of receptor in the assay well is about 15 mg/ml. The plate is incubated on a shaker for 60 minutes. Meanwhile, for each microtite plate, 6 ml buffer solution containing 1.5 mg/ml of mouse monoclonal antibody specific for b3 is prepared. To this solution is added ml of the secondary antibody, which is anti-mouse-Fc-HRP antibody conjugate. For example, for one plate, prepare 6 ml of a 1.5 mg/ml mouse Mab solution to which is added 1 ml of anti-mouse-Fc-HRP antibody stock, (this represents a 1:6000 dilution of the antibody-HRP conjugate). This mixture is allowed to incubate during the receptor-inhibitor incubation. The assay plates are washed 4 times with PBS-Tween and 50 ml/well of the antibody mixture is then pipetted into the plate for a 60 minute incubation. The plate is washed 4 times and the color reaction is developed with 50 ml/well of 0.67 mg/ml o-phenyldiamine in PBS containing 0.012% H2 O2. Alternatively, 16 mM citric acid, 50 mM Na2 PO4 at pH 5.0 can be used as a substrate buffer. The reaction is stopped with 50 ml/well 1 M H2 SO4. The plates are read at 492-405 nm and the data analyzed by four-parameter fit.

GP IIb IIIa [3] = target: T1, GP IIb IIIa; assay: GP IIb IIIa -von Willebrand factor (vWF) ELISA Assay (vWF/IIbIIIa); assay type: binding; settings: Example 30, G # table
Description: Microtiter plates are coated with 1.0 mg/ml GP IIb IIIa, prepared by the method of Fitzgerald et al., (Anal. Biochem. 151: 169-177 [1985]) and allowed to incubate overnight in coat buffer. The plates are then washed three times in wash buffer (0.05% Tween 20 in PBS) and 150 ml of assay buffer is added and allowed to incubate for 1-2 hours at room temperature on plate shaker. […] Fifty ml of 4.0 mg/ml vWF (prepared as described by Ledford et al., Thrombosis and Haemostasis, 64(4): 569-575 ]1990]) in assay buffer is then added and allowed to incubate for one hour at room temperature on plate-shaker. The plates are washed three times and the antibody mixture is added (1:5000 of mouse anti-vWF and 1:5000 of rabbit-anti-mouse-Fc-HRP, both commercially available) in assay buffer and incubated for 1 hour at room temperature on plate-shaker. […] The color change of OPD/H2 O2 reagent is read at 492 nm with a 405 nm reference wavelength on the filter photometer.

[4] = tested on: human platelet rich plasma (PRP); assay: In Vitro Human Platelet Aggregation Assay (PA); assay type: cell-based; settings: Homo sapiens, Platelet, citrate; read-out: PA IC50 (μM) (citrate)
Description: In addition to the GPIIb IIIa ELISA assay, platelet aggregation assays may be performed in human platelet rich plasma (PRP). […] The blood is centrifuged at 160×g for 10 min at 22° C. and then allowed to stand for 5 min after which the PRP is decanted. Platelet poor plasma (PPP) is isolated from the remaining blood after centrifugation at 2000×g for 25 min. The platelet count of the PRP is adjusted to ca. 300,000 per microliter with PPP.
A 225 mL aliquot of PRP plus 25 mL of either a dilution of the test sample or a control (PBS) is incubated for 5 min in a Chrono-log Whole Blood Aggregometer at 25° C. An aggregating agent (collagen, 1 mg/ml; U46619, 100 ng/ml; or ADP, 8 mM) is added and the platelet aggregation recorded.
Platelet aggregation assays are performed in human platelet rich plasma (PRP). […] The blood is centrifuged at 160×g for 10 minutes at 22° C. and allowed to stand for 5 minutes after which the PRP is decanted. Platelet poor plasma (PPP) is isolated from the remaining blood after centrifugation at 2000×g for 25 minutes. The platelet count of the PRP is diluted to about 300,000 platelets per microliter with PPP.
A 225 ml aliquot of PRP plus 25 ml of either a dilution of the test inhibitor sample or a control (PBS) is incubated for 5 minutes in a Chrono-log Whole Blood Aggregometer at 25° C. An aggregating agent (collagen, 1 mg/ml; U46619, 100 ng/ml; or ADP, 17 mM) is added and the transmission is recorded.

[5] = Example 29, Cmpd # 1-105, read-out: IC50 Fg/IIbI
[6] = Example 30, G # table, read-out: IC50 (μM) Fg/IIbIIIa

T2 sequence (P06756 31-889 limits assumed): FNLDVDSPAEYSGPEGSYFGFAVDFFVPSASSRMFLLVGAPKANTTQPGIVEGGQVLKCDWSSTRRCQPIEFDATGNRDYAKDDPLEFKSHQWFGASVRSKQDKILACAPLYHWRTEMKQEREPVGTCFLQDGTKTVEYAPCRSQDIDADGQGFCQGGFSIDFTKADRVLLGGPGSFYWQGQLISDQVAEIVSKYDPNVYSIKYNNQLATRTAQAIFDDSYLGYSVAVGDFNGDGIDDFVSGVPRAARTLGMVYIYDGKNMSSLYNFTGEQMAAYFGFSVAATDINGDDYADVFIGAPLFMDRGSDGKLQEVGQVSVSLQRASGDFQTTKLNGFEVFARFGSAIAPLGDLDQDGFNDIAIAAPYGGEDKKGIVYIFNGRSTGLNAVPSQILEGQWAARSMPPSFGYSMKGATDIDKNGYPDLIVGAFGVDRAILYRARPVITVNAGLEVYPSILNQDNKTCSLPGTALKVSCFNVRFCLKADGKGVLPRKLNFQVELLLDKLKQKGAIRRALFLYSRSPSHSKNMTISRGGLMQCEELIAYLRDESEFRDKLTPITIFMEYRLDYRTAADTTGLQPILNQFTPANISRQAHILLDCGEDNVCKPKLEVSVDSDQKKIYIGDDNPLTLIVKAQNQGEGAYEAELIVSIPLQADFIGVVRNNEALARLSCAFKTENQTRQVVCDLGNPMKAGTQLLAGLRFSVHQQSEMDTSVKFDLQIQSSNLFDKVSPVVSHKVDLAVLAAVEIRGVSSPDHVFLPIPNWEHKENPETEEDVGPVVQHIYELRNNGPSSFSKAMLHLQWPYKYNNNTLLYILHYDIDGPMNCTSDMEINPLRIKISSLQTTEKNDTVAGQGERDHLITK
T2 sequence (P06756 891-1048 partner limits assumed): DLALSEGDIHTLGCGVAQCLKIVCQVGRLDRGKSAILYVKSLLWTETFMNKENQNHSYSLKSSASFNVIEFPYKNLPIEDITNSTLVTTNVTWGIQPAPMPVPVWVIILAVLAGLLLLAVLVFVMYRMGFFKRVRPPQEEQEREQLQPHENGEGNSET
T2 sequence (P05106 27-788): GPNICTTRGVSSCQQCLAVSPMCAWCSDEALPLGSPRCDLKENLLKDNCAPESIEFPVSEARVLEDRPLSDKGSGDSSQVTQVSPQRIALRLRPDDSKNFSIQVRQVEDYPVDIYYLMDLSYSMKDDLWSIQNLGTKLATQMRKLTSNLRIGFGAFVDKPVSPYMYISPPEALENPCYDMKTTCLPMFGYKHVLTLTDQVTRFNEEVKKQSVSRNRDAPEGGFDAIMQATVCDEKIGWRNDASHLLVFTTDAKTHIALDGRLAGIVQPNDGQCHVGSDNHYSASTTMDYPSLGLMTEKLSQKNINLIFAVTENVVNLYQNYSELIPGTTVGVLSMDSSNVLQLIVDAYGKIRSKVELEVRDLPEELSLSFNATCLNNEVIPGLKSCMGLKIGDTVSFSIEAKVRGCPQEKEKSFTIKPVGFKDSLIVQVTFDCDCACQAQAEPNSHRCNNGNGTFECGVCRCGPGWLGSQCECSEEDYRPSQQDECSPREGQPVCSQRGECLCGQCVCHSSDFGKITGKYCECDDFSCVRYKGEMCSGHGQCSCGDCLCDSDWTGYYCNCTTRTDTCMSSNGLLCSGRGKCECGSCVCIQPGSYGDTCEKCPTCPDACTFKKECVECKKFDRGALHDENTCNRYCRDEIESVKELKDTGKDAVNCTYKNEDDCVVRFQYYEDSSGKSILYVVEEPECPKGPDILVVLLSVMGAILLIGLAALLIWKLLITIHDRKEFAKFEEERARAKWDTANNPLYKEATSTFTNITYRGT
T1 sequence (P08514 32-887 limits assumed): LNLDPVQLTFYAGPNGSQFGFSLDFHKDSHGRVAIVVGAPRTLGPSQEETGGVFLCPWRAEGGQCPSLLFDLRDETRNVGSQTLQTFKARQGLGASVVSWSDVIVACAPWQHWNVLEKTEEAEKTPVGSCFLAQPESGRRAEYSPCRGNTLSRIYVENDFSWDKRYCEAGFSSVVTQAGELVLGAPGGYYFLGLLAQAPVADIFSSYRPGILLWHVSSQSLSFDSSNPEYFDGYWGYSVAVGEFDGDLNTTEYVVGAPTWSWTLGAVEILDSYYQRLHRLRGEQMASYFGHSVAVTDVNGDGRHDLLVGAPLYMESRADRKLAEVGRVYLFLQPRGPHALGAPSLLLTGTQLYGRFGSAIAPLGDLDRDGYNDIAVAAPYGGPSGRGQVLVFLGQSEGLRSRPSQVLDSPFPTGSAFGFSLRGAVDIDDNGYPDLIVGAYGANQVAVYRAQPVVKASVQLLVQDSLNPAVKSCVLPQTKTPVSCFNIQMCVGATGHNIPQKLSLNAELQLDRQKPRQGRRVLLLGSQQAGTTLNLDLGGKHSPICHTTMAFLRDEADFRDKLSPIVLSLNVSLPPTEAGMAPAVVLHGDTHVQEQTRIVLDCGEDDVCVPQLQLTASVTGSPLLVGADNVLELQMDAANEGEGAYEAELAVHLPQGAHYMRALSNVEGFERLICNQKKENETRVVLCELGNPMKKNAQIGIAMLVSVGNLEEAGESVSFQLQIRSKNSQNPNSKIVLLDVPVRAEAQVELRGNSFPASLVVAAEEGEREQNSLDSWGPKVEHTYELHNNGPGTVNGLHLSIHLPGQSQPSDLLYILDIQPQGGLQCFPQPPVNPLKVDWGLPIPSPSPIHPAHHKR
T1 sequence (P08514 891-1039 partner limits assumed): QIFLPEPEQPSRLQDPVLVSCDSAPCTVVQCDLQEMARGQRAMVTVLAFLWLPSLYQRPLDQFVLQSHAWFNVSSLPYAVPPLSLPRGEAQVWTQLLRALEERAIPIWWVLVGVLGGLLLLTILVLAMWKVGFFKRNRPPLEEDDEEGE
T1 sequence (P05106 27-788): as the sequence (P05106 27-788) above

| Structure (SMILES) | IC50 (GP IIb IIIa [1]; [5]) [µM] | IC50 (GP IIb IIIa [1]; [6]) [µM] | IC50 [2] [µM] | IC50 (GP IIb IIIa [3]) [µM] | IC50 [4] [µM] |
| --- | --- | --- | --- | --- | --- |
| CN1C(=O)CN(CCC(=O)O)C(=O)c2cc(CCCCNC(=N)N)ccc21 [Cmpd 20] | 0.25 | 0.245 | > 10 | 0.096 | – |
| CN1C(=O)CN(CCC(=O)O)C(=O)c2cc(C#CCCCN)ccc21 [Cmpd 33, 1-methyl-4-(2-carboxyethyl)-7-(5-amino-1-pentynyl)-3,4-dihydro-1H-1,4-benzodiazepine-2,5-dione trifluroacetate] | 0.096 | 0.096 | > 10 | 0.39 | 85.5 |
| N=C(N)NCCCC#Cc1ccc2c(c1)C(=O)N(CCC(=O)O)CC(=O)N2Cc1cccc([N+](=O)[O-])c1 [Cmpd 36, 1-(3-nitrobenzyl)-4-(2-carboxyethyl)-7-(5-guanidino-1-pentynyl)-3,4-dihydro-1H-1,4-benzodiazepine-2,5-dione trifluroacetate] | 0.0032 | 0.0032 | 3 | 0.0004 | 0.94 |

More lines, main results first:

| IC50 (GP IIb IIIa [1]; [5]) [µM] | IC50 (GP IIb IIIa [1]; [6]) [µM] | IC50 [2] [µM] | IC50 (GP IIb IIIa [3]) [µM] | Structure (SMILES) | IC50 [4] [µM] |
| --- | --- | --- | --- | --- | --- |
| 1.9 | 1.9 | > 10 | 0.78 | CN1C(=O)CN(CCC(=O)O)C(=O)c2cc(CCCCCN)ccc21 [Cmpd 27, 1-methyl-4-(2-carboxyethyl)-7-(5-amino-1-pentyl)-3,4-dihydro-1H-1,4-benzodiazepine-2,5-dione trifluroacetate] | – |
| 0.055 | 0.055 | > 10 | 0.024 | CN1C(=O)CN(CCC(=O)O)C(=O)c2cc(CCCCCNC(=N)N)ccc21 [Cmpd 28, 1-methyl-4-(2-carboxyethyl)-7-(5-guanidino-1-pentyl)-3,4-dihydro-1H-1,4-benzodiazepine-2,5-dione trifluroacetate] | – |

Reference: US5250679A, “Nonpeptidyl platelet aggregation inhibitors having specificity for the GPIIb III receptor” (Genentech, Inc., priority 1992, dated 1993)
